According to patent publication US12528790B2, “Amide derivative having antiviral activity” (Shionogi & Co., Ltd., priority 2020, dated 2026):
Where two headings read alike, the source gives them in different places.

Legend:
RSV A2 strain = experiment: In vitro CPE (CytoPathic Effect) inhibition effect evaluation test, RSV type A; type: cell-based
Outline: (§1)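 HEp-2 cells (2.4×10^5 cells/mL, 2% FBS E-MEM) were infected with RSV alongside 3-fold compound dilutions and incubated at 37 °C, 4 days for A2 and 5 days for B Wash/18537. Viable cells quantified by CellTiter-Glo 2.0 luminescence; EC50 by nonlinear regression as 50% CPE inhibition.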

[1] = tested on: RSV B (Wash/18537 strain); experiment: In vitro CPE (CytoPathic Effect) inhibition effect evaluation test, RSV type B; type: cell-based
Outline: as §1

[2] = human respiratory syncytial virus, inhibitory effect against RSV type A (RSV A2 strain), HEp-2 cells, CPE inhibition, read-out: EC50
[3] = human respiratory syncytial virus, inhibitory effect against RSV type B, CPE inhibition, read-out: EC50
[4] = inhibitory effect against RSV type A (RSV A2 strain), HEp-2 cells, CPE inhibition, read-out: EC50
[5] = inhibitory effect against RSV type B, CPE inhibition, read-out: EC50
[6] = human respiratory syncytial virus, HEp-2, 96 h, read-out: EC50, inhibitory effect against RSV type A (CPE inhibition)
[7] = human respiratory syncytial virus, HEp-2, 120 h, HEp-2 cells, RSV B (Wash/18537 strain), 5 days, CellTiter-Glo, read-out: EC50, inhibitory effect against RSV type B (CPE inhibition)

COC1(C)CCC(Oc2ccc3c(-c4ncc(C(=O)NC5(C(=O)O)C6CC7CC(C6)CC5C7)c(C(F)(F)F)n4)cn(C4CCC(F)(F)CC4)c3c2)CC1 (stereo not drawn) [Compound I-445]
EC50 (RSV A2 strain; [2]): < 10 nM | EC50 [1, 3]: < 10 nM

CC(F)(F)c1nc(-c2cn(C3CCC(F)(F)CC3)c3cc(O[C@H]4CC[C@@H](N5CC(F)(F)C5)CC4)ccc23)ncc1C(=O)NC1(C(=O)O)C2CC3CC(C2)CC1C3 (stereo partly drawn) [Compound I-546]
EC50 (RSV A2 strain; [2]): < 10 nM | EC50 [1, 3]: < 10 nM

COc1ccc2c(c1)C1(CCOCC1)CN2c1ncc(C(=O)NC2(C(=O)O)C3CC4CC(C3)CC2C4)c(C(F)(F)F)n1 (stereo not drawn) [Compound I-80]
EC50 (RSV A2 strain; [4]): < 10 nM | EC50 [1, 5]: < 10 nM

O=C(NC1(C(=O)O)C2CC3CC(C2)CC1C3)c1ccc(-c2cn(C3CCOCC3)c3cc(OC4CCN(c5ncccn5)CC4)ccc23)nc1C(F)(F)F (stereo not drawn) [Compound I-147]
EC50 (RSV A2 strain; [2]): < 10 nM | EC50 [1, 3]: < 10 nM

O=C(NC1(C(=O)O)C2CC3CC(C2)CC1C3)c1cnc(N2CC3(CCOCC3)c3cc(-n4ncc5c4CCN(CC(F)(F)F)C5)ccc32)nc1C(F)(F)F (stereo not drawn) [Compound I-472]
EC50 (RSV A2 strain; [2]): < 10 nM | EC50 [1, 3]: < 10 nM

O=C(NC1(C(=O)O)C2CC3CC(C2)CC1C3)c1cnc(N2CC3(CCOCC3)c3cc(OC4CCN(c5ncccn5)CC4)ccc32)nc1C(F)(F)F (stereo not drawn) [Compound I-82]
EC50 (RSV A2 strain; [6]): 0.27 nM | EC50 [1, 7]: 0.34 nM

O=C(NC1(C(=O)O)C2CC3CC(C2)CC1C3)c1cnc(-c2cn(C3CCOCC3)c3cc(O[C@H]4CC[C@H](N5CC(F)(F)C5)CC4)ccc23)nc1C(F)(F)F (stereo partly drawn) [Compound I-499]
EC50 (RSV A2 strain; [2]): < 10 nM | EC50 [1, 3]: < 10 nM

O=C(NC1(C(=O)O)C2CC3CC(C2)CC1C3)c1cnc(N2CC3(CCCCC3)c3cc(OC4CCN(CC(F)F)CC4)ccc32)nc1C(F)(F)F (stereo not drawn) [Compound I-482]
EC50 (RSV A2 strain; [2]): < 10 nM | EC50 [1, 3]: 10 to 100 nM

CC(F)(F)c1nc(N2CC3(CCCCC3)c3cc(OC4CCC(N5CCC(F)(F)C5)CC4)ccc32)ncc1C(=O)NC1(C(=O)O)C2CC3CC(C2)CC1C3 (stereo not drawn) [Compound I-539]
EC50 (RSV A2 strain; [4]): < 10 nM | EC50 [1, 5]: 10 to 100 nM

O=C(NC1(C(=O)O)C2CC3CC(C2)CC1C3)c1cnc(-c2cn(C3CCC(F)(F)CC3)c3cc(OC4CC(N5CC(F)(F)C5)C4)ccc23)nc1C(F)(F)F (single isomer, unassigned) [Compound I-413]
EC50 (RSV A2 strain; [4]): < 10 nM | EC50 [1, 5]: 10 to 100 nM

CC(F)(F)c1nc(-c2cn(C3CCC4(CC3)COC4)c3cc(O[C@H]4CC[C@H](N5CC(F)(F)C5)CC4)ccc23)ncc1C(=O)NC1(C(=O)O)C2CC3CC(C2)CC1C3 (stereo partly drawn) [Compound I-580]
EC50 (RSV A2 strain; [2]): < 10 nM | EC50 [1, 3]: < 10 nM

CCC1(CC)CN(c2ncc(C(=O)NC3(C(=O)O)C4CC5CC(C4)CC3C5)c(C(C)(F)F)n2)c2ccc(O[C@H]3CC[C@H](N4CC(F)(F)C4)CC3)cc21 (stereo partly drawn) [Compound I-591]
EC50 (RSV A2 strain; [6]): 0.61 nM | EC50 [1, 7]: 2.2 nM

O=C(NC1(C(=O)O)C2CC3CC(C2)CC1C3)c1cnc(-c2cn(C3CCC(F)(F)CC3)c3cc(OC4CCN(C5CC(F)(F)C5)CC4)ccc23)nc1C(F)(F)F (stereo not drawn) [Compound I-249]
EC50 (RSV A2 strain; [2]): < 10 nM | EC50 [1, 3]: 10 to 100 nM

O=C(NC1(C(=O)O)CCCCC1)c1cnc(N2CC3(CCOCC3)c3cc(OCCC4CCOCC4)ccc32)nc1C(F)(F)F [Compound I-56]
EC50 (RSV A2 strain; [2]): < 10 nM | EC50 [1, 3]: 10 to 100 nM

CC(F)(F)c1nc(N2CC3(CCCCC3)c3cc(OC4CCN(c5ncccn5)CC4)ccc32)ncc1C(=O)NC1(C(=O)O)C2CC3CC(C2)CC1C3 (stereo not drawn) [Compound I-380]
EC50 (RSV A2 strain; [2]): < 10 nM | EC50 [1, 3]: < 10 nM

CC(F)(F)c1nc(N2CC3(CCOCC3)c3cc(OC4CN(CC(F)(F)F)C4)ccc32)ncc1C(=O)NC1(C(=O)O)C2CC3CC(C2)CC1C3 (stereo not drawn) [Compound I-592]
EC50 (RSV A2 strain; [2]): < 10 nM | EC50 [1, 3]: < 10 nM

CC(C)n1cc(-c2ncc(C(=O)NC3(C(=O)O)C4CC5CC(C4)CC3C5)c(C(F)(F)F)n2)c2ccc(O[C@H]3CC[C@H](N4CC(F)(F)C4)CC3)cc21 (stereo partly drawn) [Compound I-616]
EC50 (RSV A2 strain; [2]): < 10 nM | EC50 [1, 3]: < 10 nM

CC(F)(F)c1nc(N2CC3(CCCCC3)c3cc(OC4CCN(c5ncc(F)cn5)CC4)ncc32)ncc1C(=O)N[C@]1(C(=O)O)[C@@H]2CC3C[C@H]1C[C@@](F)(C3)C2 [Compound I-600]
EC50 (RSV A2 strain; [2]): < 10 nM | EC50 [1, 3]: < 10 nM

COC[C@@H](C)n1cc(-c2ncc(C(=O)NC3(C(=O)O)C4CC5CC(C4)CC3C5)c(C(F)(F)F)n2)c2ccc(O[C@H]3CC[C@H](N4CC(F)(F)C4)CC3)cc21 (stereo partly drawn) [Compound I-507]
EC50 (RSV A2 strain; [2]): < 10 nM | EC50 [1, 3]: < 10 nM

CC(F)(F)c1nc(N2CC3(CCOCC3)c3cc(OC4CCN(c5ncc(F)cn5)CC4)ncc32)ncc1C(=O)NC1(C(=O)O)C2CC3CC(C2)CC1C3 (stereo not drawn) [Compound I-503]
EC50 (RSV A2 strain; [2]): < 10 nM | EC50 [1, 3]: < 10 nM

CC(F)(F)c1nc(N2CC3(CCOCC3)c3cc(OC4CCC(N5CCC(F)(F)C5)CC4)ccc32)ncc1C(=O)NC1(C(=O)O)C2CC3CC(C2)CC1C3 (stereo not drawn) [Compound I-538]
EC50 (RSV A2 strain; [4]): < 10 nM | EC50 [1, 5]: < 10 nM

O=C(NC1(C(=O)O)C2CC3CC(C2)CC1C3)c1cnc(-c2cn(C3CCC4(CC3)COC4)c3cc(OC4CCN(c5ncc(F)cn5)CC4)ccc23)nc1C(F)(F)F (stereo not drawn) [Compound I-437]
EC50 (RSV A2 strain; [2]): < 10 nM | EC50 [1, 3]: < 10 nM

O=C(NC1(C(=O)O)C2CC3CC(C2)CC1C3)c1cnc(N2CC3(CCCC3)c3cc(OC4CCN(CC(F)(F)F)CC4)ccc32)nc1C(F)(F)F (stereo not drawn) [Compound I-474]
EC50 (RSV A2 strain; [2]): < 10 nM | EC50 [1, 3]: 10 to 100 nM

O=C(NC1(C(=O)O)C2CC3CC(C2)CC1C3)c1cnc(N2CC3(CCOCC3)c3cc(OC4CCN(CC(F)(F)F)CC4)ccc32)nc1C(F)(F)F (stereo not drawn) [Compound I-384]
EC50 (RSV A2 strain; [2]): < 10 nM | EC50 [1, 3]: < 10 nM

CC(F)(F)c1nc(N2CC3(CCOCC3)c3cc(O[C@@H]4CCN(CC(F)(F)F)C4)ccc32)ncc1C(=O)NC1(C(=O)O)C2CC3CC(C2)CC1C3 (stereo partly drawn) [Compound I-561]
EC50 (RSV A2 strain; [2]): < 10 nM | EC50 [1, 3]: < 10 nM

N#Cc1cnc(N2CCC(Oc3ccc4c(c3)C3(CCCCC3)CN4c3ncc(C(=O)NC4(C(=O)O)C5CC6CC(C5)CC4C6)c(C(F)(F)F)n3)CC2)nc1 (stereo not drawn) [Compound I-520]
EC50 (RSV A2 strain; [2]): < 10 nM | EC50 [1, 3]: < 10 nM

COc1ccc2c(n1)C1(CCOCC1)CN2c1ncc(C(=O)NC2(C(=O)O)C3CC4CC(C3)CC2C4)c(C(F)(F)F)n1 (stereo not drawn) [Compound I-91]
EC50 (RSV A2 strain; [4]): < 10 nM | EC50 [1, 5]: 10 to 100 nM

O=C(NC1(C(=O)O)CCCCC1)c1cnc(N2CCc3cc(OC4CCN(c5ncccn5)CC4)ccc32)nc1C(F)(F)F [Compound I-36]
EC50 (RSV A2 strain; [2]): < 10 nM | EC50 [1, 3]: 10 to 100 nM

CC(F)(F)c1nc(N2CC3(CCOCC3)c3cc(-n4ncc5c4CCN(CC(F)(F)F)C5)ncc32)ncc1C(=O)NC1(C(=O)O)C2CC3CC(C2)CC1C3 (stereo not drawn) [Compound I-602]
EC50 (RSV A2 strain; [2]): < 10 nM | EC50 [1, 3]: < 10 nM

O=C(NC1(C(=O)O)C2CC3CC(C2)CC1C3)c1cnc(-c2cn(C3CCC(F)(F)CC3)c3cc(OC4CCN(C5COC5)CC4)ccc23)nc1C(F)(F)F (stereo not drawn) [Compound I-234]
EC50 (RSV A2 strain; [2]): < 10 nM | EC50 [1, 3]: 10 to 100 nM

O=C(NC1(C(=O)O)C2CC3CC(C2)CC1C3)c1cnc(-c2cn(C3CCC(F)(F)CC3)c3cc(O[C@H]4CC[C@H](N5CC(F)(F)C5)CC4)ccc23)nc1C(F)(F)F (stereo partly drawn) [Compound I-545]
EC50 (RSV A2 strain; [2]): < 10 nM | EC50 [1, 3]: < 10 nM

COC1CC(n2cc(-c3ccc(C(=O)NC4(C(=O)O)C5CC6CC(C5)CC4C6)c(C(F)(F)F)n3)c3ccc(OC4CCN(c5ncccn5)CC4)cc32)C1 (stereo not drawn) [Compound I-250]
EC50 (RSV A2 strain; [2]): < 10 nM | EC50 [1, 3]: < 10 nM

O=C(NC1(C(=O)O)C2CC3CC(C2)CC1C3)c1ccc(-c2cn(C(=O)OC3CCOCC3)c3cc(OC4CCN(c5ncccn5)CC4)ccc23)nc1C(F)(F)F (stereo not drawn) [Compound I-152]
EC50 (RSV A2 strain; [2]): < 10 nM | EC50 [1, 3]: < 10 nM
